Experimental data from article PMC9653409, “Generative deep learning enables the discovery of a potent and selective RIPK1 inhibitor” (Nature Communications, 2022).

Assays:
Experiment in all cases: Kinase inhibitory activity profiling of RI-962@10 µM (406 kinases, Eurofins)
Format in all cases: biochemical
[1] = target: panel of human kinases (kinase named in endpoint) (Homo sapiens, UniProt O00418); conditions: 10 µM; read-out: Activity (%), eEF-2K(h)
Procedure, shortened: (§1)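 Radiometric filter-binding kinase assays: enzyme preincubated 15 min with compound in 8 mM MOPS pH 7.0, 0.2 mM EDTA, 250 μM peptide substrate, 10 mM magnesium acetate, 10 μM [γ-33P]-ATP. Reaction started with Mg/ATP, run 40 min at room temperature, stopped with phosphoric acid; 33P incorporation read by scintillation counting. Other kinases by similar protocols.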

[2] = target: panel of human kinases (kinase named in endpoint) (Homo sapiens, UniProt O94806); conditions: 10 µM; read-out: Activity (%), PKD3(h)
Procedure, shortened: as §1

[3] = target: panel of human kinases (kinase named in endpoint) (Homo sapiens, UniProt P12931, T341M); conditions: 10 µM; read-out: Activity (%), Src(T341M)(h)
Procedure, shortened: as §1

[4] = target: panel of human kinases (kinase named in endpoint) (Homo sapiens, UniProt P14616); conditions: 10 µM; read-out: Activity (%), IRR(h)
Procedure, shortened: as §1

[5] = target: panel of human kinases (kinase named in endpoint) (Homo sapiens, UniProt P16591); conditions: 10 µM; read-out: Activity (%), Fer(h)
Procedure, shortened: as §1

[6] = target: panel of human kinases (kinase named in endpoint) (Homo sapiens, UniProt P29323); conditions: 10 µM; read-out: Activity (%), EphB2(h)
Procedure, shortened: as §1

[7] = target: panel of human kinases (kinase named in endpoint) (Homo sapiens, UniProt P30291); conditions: 10 µM; read-out: Activity (%), Wee1(h)
Procedure, shortened: as §1

[8] = target: panel of human kinases (kinase named in endpoint) (Homo sapiens, UniProt P45984); conditions: 10 µM; read-out: Activity (%), JNK2α2(h)
Procedure, shortened: as §1

[9] = target: panel of human kinases (kinase named in endpoint) (Homo sapiens, UniProt P49674); conditions: 10 µM; read-out: Activity (%), CK1ε(h)
Procedure, shortened: as §1

[10] = target: panel of human kinases (kinase named in endpoint) (Homo sapiens, UniProt P52333); conditions: 10 µM; read-out: Activity (%), JAK3(h)
Procedure, shortened: as §1

[11] = target: panel of human kinases (kinase named in endpoint) (Homo sapiens, UniProt P53355); conditions: 10 µM; read-out: Activity (%), DAPK1(h)
Procedure, shortened: as §1

[12] = target: panel of human kinases (kinase named in endpoint) (Homo sapiens, UniProt Q00532); conditions: 10 µM; read-out: Activity (%), CDKL1(h)
Procedure, shortened: as §1

[13] = target: panel of human kinases (kinase named in endpoint) (Homo sapiens, UniProt Q14680); conditions: 10 µM; read-out: Activity (%), MELK(h)
Procedure, shortened: as §1

[14] = target: panel of human kinases (kinase named in endpoint) (Homo sapiens, UniProt Q15349); conditions: 10 µM; read-out: Activity (%), Rsk3(h)
Procedure, shortened: as §1

[15] = target: panel of human kinases (kinase named in endpoint) (Homo sapiens, UniProt Q15759); conditions: 10 µM; read-out: Activity (%), SAPK2b(h)
Procedure, shortened: as §1

[16] = target: panel of human kinases (kinase named in endpoint) (Homo sapiens, UniProt Q16566); conditions: 10 µM; read-out: Activity (%), CaMKIV(h)
Procedure, shortened: as §1

[17] = target: panel of human kinases (kinase named in endpoint) (Homo sapiens, UniProt Q16654); conditions: 10 µM; read-out: Activity (%), PDHK4(h)
Procedure, shortened: as §1

[18] = target: panel of human kinases (kinase named in endpoint) (Homo sapiens, UniProt Q5VT25); conditions: 10 µM; read-out: Activity (%), MRCKα(h)
Procedure, shortened: as §1

[19] = target: panel of human kinases (kinase named in endpoint) (Homo sapiens, UniProt Q86Y07); conditions: 10 µM; read-out: Activity (%), VRK2(h)
Procedure, shortened: as §1

[20] = target: panel of human kinases (kinase named in endpoint) (Homo sapiens, UniProt Q96PF2); conditions: 10 µM; read-out: Activity (%), TSSK2(h)
Procedure, shortened: as §1

[21] = target: panel of human kinases (kinase named in endpoint) (Homo sapiens, UniProt Q96RG2); conditions: 10 µM; read-out: Activity (%), PASK(h)
Procedure, shortened: as §1

[22] = target: panel of human kinases (kinase named in endpoint) (Homo sapiens, UniProt Q99759); conditions: 10 µM; read-out: Activity (%), MEKK3(h)
Procedure, shortened: as §1

[23] = target: panel of human kinases (kinase named in endpoint) (Homo sapiens, UniProt Q9H2K8); conditions: 10 µM; read-out: Activity (%), TAO3(h)
Procedure, shortened: as §1

[24] = target: panel of human kinases (kinase named in endpoint) (Homo sapiens, UniProt Q9UEE5); conditions: 10 µM; read-out: Activity (%), DRAK1(h)
Procedure, shortened: as §1

[25] = target: panel of human kinases (kinase named in endpoint) (Homo sapiens, UniProt Q9Y2K2); conditions: 10 µM; read-out: Activity (%), SIK3(h)
Procedure, shortened: as §1

[26] = target: panel of human kinases (kinase named in endpoint) (Homo sapiens, UniProt Q9Y3S1); conditions: 10 µM; read-out: Activity (%), WNK2(h)
Procedure, shortened: as §1

Chain of panel of human kinases (kinase named in endpoint) (Homo sapiens, UniProt P49674) (P49674 whole entry): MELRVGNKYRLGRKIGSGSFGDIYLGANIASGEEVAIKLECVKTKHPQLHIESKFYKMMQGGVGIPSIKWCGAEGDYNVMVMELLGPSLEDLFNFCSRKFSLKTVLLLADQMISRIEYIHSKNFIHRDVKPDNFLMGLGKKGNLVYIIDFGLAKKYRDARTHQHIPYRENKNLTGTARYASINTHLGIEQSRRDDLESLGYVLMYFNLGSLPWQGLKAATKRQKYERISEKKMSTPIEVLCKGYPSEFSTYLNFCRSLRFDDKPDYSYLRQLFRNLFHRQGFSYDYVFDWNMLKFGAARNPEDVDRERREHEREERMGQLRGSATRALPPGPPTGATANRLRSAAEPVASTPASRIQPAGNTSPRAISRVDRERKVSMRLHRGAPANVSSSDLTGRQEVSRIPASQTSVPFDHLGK
Chain of panel of human kinases (kinase named in endpoint) (Homo sapiens, UniProt P45984) (P45984 whole entry): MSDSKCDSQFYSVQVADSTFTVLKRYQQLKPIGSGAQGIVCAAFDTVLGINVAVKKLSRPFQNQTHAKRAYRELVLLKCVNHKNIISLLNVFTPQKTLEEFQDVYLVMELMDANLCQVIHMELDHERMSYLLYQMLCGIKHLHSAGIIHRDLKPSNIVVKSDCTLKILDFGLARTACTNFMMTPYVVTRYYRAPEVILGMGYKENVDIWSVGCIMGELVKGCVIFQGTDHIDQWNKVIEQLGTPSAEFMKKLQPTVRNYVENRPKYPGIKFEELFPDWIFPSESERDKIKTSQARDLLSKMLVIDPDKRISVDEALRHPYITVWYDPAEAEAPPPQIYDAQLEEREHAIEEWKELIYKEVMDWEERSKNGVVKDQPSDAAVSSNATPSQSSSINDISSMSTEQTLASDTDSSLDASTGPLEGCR
Chain of panel of human kinases (kinase named in endpoint) (Homo sapiens, UniProt Q16566) (Q16566 whole entry): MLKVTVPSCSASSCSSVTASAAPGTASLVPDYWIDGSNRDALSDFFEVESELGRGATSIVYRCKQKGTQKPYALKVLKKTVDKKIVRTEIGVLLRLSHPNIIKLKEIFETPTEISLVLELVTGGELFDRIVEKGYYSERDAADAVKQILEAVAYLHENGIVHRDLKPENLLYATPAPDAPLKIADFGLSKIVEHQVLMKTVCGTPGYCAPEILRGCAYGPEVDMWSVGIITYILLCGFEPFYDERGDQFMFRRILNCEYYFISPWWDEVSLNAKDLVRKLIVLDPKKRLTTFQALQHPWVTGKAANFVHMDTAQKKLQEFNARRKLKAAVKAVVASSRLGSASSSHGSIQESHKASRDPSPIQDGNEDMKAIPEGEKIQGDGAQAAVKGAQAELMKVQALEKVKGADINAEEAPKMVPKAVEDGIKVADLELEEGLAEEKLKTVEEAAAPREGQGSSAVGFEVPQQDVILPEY
Chain of panel of human kinases (kinase named in endpoint) (Homo sapiens, UniProt P52333) (P52333 whole entry): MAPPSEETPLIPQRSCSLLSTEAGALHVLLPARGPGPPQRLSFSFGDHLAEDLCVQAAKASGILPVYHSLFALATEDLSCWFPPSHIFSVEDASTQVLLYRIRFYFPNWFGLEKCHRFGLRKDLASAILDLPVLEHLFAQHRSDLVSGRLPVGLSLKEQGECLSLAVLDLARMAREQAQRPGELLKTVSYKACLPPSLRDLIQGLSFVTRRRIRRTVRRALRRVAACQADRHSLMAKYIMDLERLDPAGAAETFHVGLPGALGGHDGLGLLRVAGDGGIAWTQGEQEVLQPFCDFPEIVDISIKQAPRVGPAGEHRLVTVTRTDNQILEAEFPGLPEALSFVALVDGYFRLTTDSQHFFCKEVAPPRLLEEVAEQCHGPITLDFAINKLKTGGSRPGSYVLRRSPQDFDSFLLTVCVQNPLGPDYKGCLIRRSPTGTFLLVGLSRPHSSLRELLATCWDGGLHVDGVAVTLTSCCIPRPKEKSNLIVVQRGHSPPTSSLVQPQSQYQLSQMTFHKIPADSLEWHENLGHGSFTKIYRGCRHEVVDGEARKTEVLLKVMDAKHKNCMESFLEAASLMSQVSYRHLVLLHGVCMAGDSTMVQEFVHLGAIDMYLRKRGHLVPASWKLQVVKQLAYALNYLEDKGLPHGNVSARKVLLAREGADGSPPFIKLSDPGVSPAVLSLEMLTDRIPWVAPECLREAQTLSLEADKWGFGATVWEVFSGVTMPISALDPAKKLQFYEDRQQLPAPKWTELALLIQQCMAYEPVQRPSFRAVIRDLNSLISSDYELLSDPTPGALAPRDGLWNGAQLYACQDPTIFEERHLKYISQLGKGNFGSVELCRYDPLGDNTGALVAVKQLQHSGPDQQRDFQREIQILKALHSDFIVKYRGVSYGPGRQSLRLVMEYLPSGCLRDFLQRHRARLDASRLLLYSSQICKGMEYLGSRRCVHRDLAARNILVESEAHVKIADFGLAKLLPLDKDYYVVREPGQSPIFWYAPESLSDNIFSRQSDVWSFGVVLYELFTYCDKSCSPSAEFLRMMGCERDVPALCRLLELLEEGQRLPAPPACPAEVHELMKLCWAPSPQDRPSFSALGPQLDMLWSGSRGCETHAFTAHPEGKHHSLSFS
Chain of panel of human kinases (kinase named in endpoint) (Homo sapiens, UniProt Q14680) (Q14680 whole entry): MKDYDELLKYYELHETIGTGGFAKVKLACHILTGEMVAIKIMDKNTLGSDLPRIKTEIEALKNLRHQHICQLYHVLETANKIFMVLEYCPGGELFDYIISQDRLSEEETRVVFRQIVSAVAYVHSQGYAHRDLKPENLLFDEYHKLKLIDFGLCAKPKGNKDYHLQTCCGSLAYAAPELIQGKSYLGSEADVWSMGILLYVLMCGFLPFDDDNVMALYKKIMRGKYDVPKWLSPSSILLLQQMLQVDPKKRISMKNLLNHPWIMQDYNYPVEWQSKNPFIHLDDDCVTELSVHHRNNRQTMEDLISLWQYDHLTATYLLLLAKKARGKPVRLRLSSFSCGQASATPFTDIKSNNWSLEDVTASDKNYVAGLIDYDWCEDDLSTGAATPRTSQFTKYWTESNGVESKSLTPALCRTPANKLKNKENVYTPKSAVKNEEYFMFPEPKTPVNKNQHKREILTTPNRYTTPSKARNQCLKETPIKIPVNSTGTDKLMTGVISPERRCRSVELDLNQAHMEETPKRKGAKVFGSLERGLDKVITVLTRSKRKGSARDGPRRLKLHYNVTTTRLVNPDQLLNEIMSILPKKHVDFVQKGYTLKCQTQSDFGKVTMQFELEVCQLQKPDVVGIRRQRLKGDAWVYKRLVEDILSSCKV
Chain of panel of human kinases (kinase named in endpoint) (Homo sapiens, UniProt P53355) (P53355 whole entry): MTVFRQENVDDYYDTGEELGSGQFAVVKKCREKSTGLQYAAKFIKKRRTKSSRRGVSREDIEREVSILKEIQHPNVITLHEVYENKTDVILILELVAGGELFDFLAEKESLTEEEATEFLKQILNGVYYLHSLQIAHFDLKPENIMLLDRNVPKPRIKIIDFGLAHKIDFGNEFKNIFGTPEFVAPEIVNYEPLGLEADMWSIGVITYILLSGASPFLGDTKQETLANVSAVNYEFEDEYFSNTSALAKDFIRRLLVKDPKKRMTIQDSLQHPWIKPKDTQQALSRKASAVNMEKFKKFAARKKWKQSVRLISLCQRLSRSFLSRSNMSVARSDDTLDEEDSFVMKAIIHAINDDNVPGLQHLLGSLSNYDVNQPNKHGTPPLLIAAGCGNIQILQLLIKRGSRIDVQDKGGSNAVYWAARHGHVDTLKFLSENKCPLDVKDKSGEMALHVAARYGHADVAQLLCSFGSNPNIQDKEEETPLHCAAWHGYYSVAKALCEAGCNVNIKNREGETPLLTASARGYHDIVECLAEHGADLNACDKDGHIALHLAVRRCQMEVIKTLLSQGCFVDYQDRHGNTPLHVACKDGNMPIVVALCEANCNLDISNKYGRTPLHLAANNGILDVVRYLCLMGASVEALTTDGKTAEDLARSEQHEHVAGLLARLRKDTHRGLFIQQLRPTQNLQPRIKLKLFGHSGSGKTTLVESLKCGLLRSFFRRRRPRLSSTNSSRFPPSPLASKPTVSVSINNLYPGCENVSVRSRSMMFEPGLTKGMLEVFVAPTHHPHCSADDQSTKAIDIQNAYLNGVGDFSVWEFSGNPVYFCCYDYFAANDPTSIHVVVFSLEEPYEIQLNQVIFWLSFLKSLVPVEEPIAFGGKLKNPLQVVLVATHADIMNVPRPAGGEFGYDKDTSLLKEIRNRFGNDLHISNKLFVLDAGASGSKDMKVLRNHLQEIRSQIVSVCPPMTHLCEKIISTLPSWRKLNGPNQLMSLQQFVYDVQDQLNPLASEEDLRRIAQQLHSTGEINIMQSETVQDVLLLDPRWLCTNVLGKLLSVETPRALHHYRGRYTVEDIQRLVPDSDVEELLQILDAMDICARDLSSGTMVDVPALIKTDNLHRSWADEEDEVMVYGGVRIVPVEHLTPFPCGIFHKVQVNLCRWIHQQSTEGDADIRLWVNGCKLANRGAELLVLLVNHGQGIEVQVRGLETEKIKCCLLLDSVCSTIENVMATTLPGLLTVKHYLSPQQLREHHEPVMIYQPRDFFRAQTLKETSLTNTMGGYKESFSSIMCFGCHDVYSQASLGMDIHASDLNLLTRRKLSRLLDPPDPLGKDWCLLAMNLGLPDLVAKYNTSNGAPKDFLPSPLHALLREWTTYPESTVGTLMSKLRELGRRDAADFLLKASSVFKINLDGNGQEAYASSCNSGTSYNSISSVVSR
Chain of panel of human kinases (kinase named in endpoint) (Homo sapiens, UniProt Q16654) (Q16654 whole entry): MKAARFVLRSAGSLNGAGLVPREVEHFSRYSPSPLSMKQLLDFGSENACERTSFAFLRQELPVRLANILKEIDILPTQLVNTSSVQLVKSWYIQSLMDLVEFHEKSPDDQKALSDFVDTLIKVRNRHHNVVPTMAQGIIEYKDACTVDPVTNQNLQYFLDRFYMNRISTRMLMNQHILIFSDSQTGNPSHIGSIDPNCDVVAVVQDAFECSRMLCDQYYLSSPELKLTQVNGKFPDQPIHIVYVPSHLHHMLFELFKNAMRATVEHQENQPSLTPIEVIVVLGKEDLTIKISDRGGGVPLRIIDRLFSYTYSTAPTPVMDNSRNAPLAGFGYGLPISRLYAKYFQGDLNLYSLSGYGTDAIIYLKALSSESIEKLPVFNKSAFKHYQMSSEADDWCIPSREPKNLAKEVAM

Q: Which activity at 10 µM [1] does the source give for CC(C)C(=O)Nc1nc2cc(-c3ccc4c(c3)c(C(=O)NC(C)c3ccccc3)cn4C)ccn2n1 (centres unmarked) [RI-962] here?
A: Its activity at 10 µM is 112%.

Q: What about the activity at 10 µM [2] of the same compound?
A: The activity at 10 µM was 104%.

Q: What about the activity at 10 µM [3] of the same compound?
A: Its activity at 10 µM is 100%.

Q: What about the activity at 10 µM [4] of the same compound?
A: The activity at 10 µM was 100%.

Q: And the activity at 10 µM [5]?
A: Its activity at 10 µM is 107%.

Q: And the activity at 10 µM [6]?
A: Its activity at 10 µM is 73%.

Q: What about the activity at 10 µM [7] of the same compound?
A: The activity at 10 µM was 92%.

Q: What about the activity at 10 µM [8] of the same compound?
A: Its activity at 10 µM is 71%.

Q: What about the activity at 10 µM [9] of the same compound?
A: Its activity at 10 µM is 83%.

Q: And the activity at 10 µM [10]?
A: Its activity at 10 µM is 95%.

Q: And the activity at 10 µM [11]?
A: Its activity at 10 µM is 95%.

Q: What about the activity at 10 µM [12] of the same compound?
A: The activity at 10 µM was 98%.

Q: And the activity at 10 µM [13]?
A: The activity at 10 µM was 95%.

Q: What about the activity at 10 µM [14] of the same compound?
A: The activity at 10 µM was 110%.

Q: And the activity at 10 µM [15]?
A: Its activity at 10 µM is 84%.

Q: And the activity at 10 µM [16]?
A: The activity at 10 µM was 77%.

Q: And the activity at 10 µM [17]?
A: The activity at 10 µM was 75%.

Q: What about the activity at 10 µM [18] of the same compound?
A: The activity at 10 µM was 94%.

Q: What about the activity at 10 µM [19] of the same compound?
A: Its activity at 10 µM is 89%.

Q: What about the activity at 10 µM [20] of the same compound?
A: Its activity at 10 µM is 76%.

Q: And the activity at 10 µM [21]?
A: Its activity at 10 µM is 71%.

Q: What about the activity at 10 µM [22] of the same compound?
A: Its activity at 10 µM is 93%.

Q: What about the activity at 10 µM [23] of the same compound?
A: Its activity at 10 µM is 86%.

Q: What about the activity at 10 µM [24] of the same compound?
A: The activity at 10 µM was 100%.

Q: What about the activity at 10 µM [25] of the same compound?
A: The activity at 10 µM was 100%.

Q: What about the activity at 10 µM [26] of the same compound?
A: The activity at 10 µM was 79%.
